Measurements as given in patent US6603046B1, “Bis-aromatic a,β-unsaturated ketones” (Lica Pharmaceuticals A/S, priority 1992, dated 2003).

Each compound was assayed on L. major promastigotes (assay: L. major promastigotes from 4-days cultures, 3H-thymidine uptake (Examples 5, 14)). Settings: Leishmania major; Table 14.1; 0.5 μg/ml; read-out: percentage inhibition of promastigotes (upper figure).
Type: cell-based, Leishmania major
Experimental: Parasite cultures. The same parasite culture as described in Example 4. Promastigotes were harvested on day 4 of the culture and used for the parasiticidal assay.
Effect on promastigotes. […] Following incubation, […] of ^3H-thymidine was added to each well and further incubated for 18 hrs. Promastigotes were then harvested on filter paper by means of a cell harvester (Skatron, Lierbyen, Norway), extensively washed with distilled water and counted in a scintillation counter (Minaxi Ti-Carb 4000, United Technologies, Packard, USA).
L. major promastigotes. The L. major promastigotes were prepared as described in Example 4 and harvested after 4 days.

`C=CCOc1ccc(C(=O)/C=C/c2cccc(OC)c2OC)cc1` [drawing 81] and `COc1ccc(/C=C/C(=O)c2ccc(O)cc2)c(OC)c1` [drawing 70] are within error of each other in inhibition at 0.5 µg/mL: 13.9 ± 12.9% for the first, 20 ± 20.6% for the second.

With `COc1ccc(/C=C/C(=O)c2ccccc2O)c(OC)c1` the inhibition at 0.5 µg/mL was 19.2 ± 18.1%.

Same assay, conditions: Leishmania major; Table 14.1; 1 μg/ml; read-out: percentage inhibition of promastigotes (upper figure)

`C=CCOc1ccc(C(=O)/C=C/c2cccc(OC)c2OC)cc1` [drawing 81] and `COc1ccc(/C=C/C(=O)c2ccc(O)cc2)c(OC)c1` [drawing 70] are within error of each other in inhibition at 1 µg/mL: 20.7 ± 17.1% for the first, 29 ± 22.2% for the second.

Compound `COc1ccc(/C=C/C(=O)c2ccccc2O)c(OC)c1` has an inhibition at 1 µg/mL of 37.6 ± 18.3%.

Same assay, conditions: Leishmania major; Table 14.1; 5 μg/ml; read-out: percentage inhibition of promastigotes (upper figure)

`C=CCOc1ccc(C(=O)/C=C/c2cccc(OC)c2OC)cc1` [drawing 81] and `COc1ccc(/C=C/C(=O)c2ccc(O)cc2)c(OC)c1` [drawing 70] are within error of each other in inhibition at 5 µg/mL: 82.1 ± 13.6% for the first, 66.9 ± 15.9% for the second.

Work on `COc1ccc(/C=C/C(=O)c2ccccc2O)c(OC)c1` yielded an inhibition at 5 µg/mL of 89.4 ± 13.8%.

Same assay, conditions: Leishmania major; Table 14.1; 10 μg/ml; read-out: percentage inhibition of promastigotes (upper figure)

`C=CCOc1ccc(C(=O)/C=C/c2cccc(OC)c2OC)cc1` [drawing 81] and `COc1ccc(/C=C/C(=O)c2ccc(O)cc2)c(OC)c1` [drawing 70] are within error of each other in inhibition at 10 µg/mL: 98.1 ± 1% for the first, 90.9 ± 7.4% for the second.

With `COc1ccc(/C=C/C(=O)c2ccccc2O)c(OC)c1` the inhibition at 10 µg/mL was 98.3 ± 1%.

Each compound was assayed on human lymphocytes (assay: Lymphocyte Proliferation Assay, 3H-thymidine incorporation (Example 13)). Settings: Homo sapiens, Lymphocyte, read-out: inhibition of lymphocytes (lower figure).

First: C=CCOc1ccc(C(=O)/C=C/c2cccc(OC)c2OC)cc1 [drawing 81]
Second: COc1ccc(/C=C/C(=O)c2ccc(O)cc2)c(OC)c1 [drawing 70]
The inhibition at 0.5 µg/mL of the first is higher: 10.8% for the first, 1.5% for the second.

For `COc1ccc(/C=C/C(=O)c2ccccc2O)c(OC)c1`, the inhibition at 0.5 µg/mL was 3%.

First: C=CCOc1ccc(C(=O)/C=C/c2cccc(OC)c2OC)cc1 [drawing 81]
Second: COc1ccc(/C=C/C(=O)c2ccc(O)cc2)c(OC)c1 [drawing 70]
The inhibition at 1 µg/mL of the first is higher: 14.2% for the first, 6.3% for the second.

`COc1ccc(/C=C/C(=O)c2ccccc2O)c(OC)c1` showed an inhibition at 1 µg/mL of 5.5%.

Going from `C=CCOc1ccc(C(=O)/C=C/c2cccc(OC)c2OC)cc1` [drawing 81] to `COc1ccc(/C=C/C(=O)c2ccc(O)cc2)c(OC)c1` [drawing 70], the inhibition at 5 µg/mL falls from 8.8% to 2.4%.

For `COc1ccc(/C=C/C(=O)c2ccccc2O)c(OC)c1`, the inhibition at 5 µg/mL was 2.6%.

Compared with `C=CCOc1ccc(C(=O)/C=C/c2cccc(OC)c2OC)cc1` [drawing 81], `COc1ccc(/C=C/C(=O)c2ccc(O)cc2)c(OC)c1` [drawing 70] is lower in inhibition at 10 µg/mL: 13.8% for the first, 4% for the second.

In the case of `COc1ccc(/C=C/C(=O)c2ccccc2O)c(OC)c1`, the inhibition at 10 µg/mL is reported as 0%.

These compounds were tested on P. falciparum (assay: P. falciparum growth in vitro (Table 14.1, strain not stated)). Settings: Plasmodium falciparum; 0.5 μg/ml; read-out: inhibition of malaria parasites (middle figure) (converted).
Type: cell-based
Experimental: The P. falciparum experimental setup was as described in Example 15.
Testing of the effect of drugs and serum on the in vitro growth of the parasites. The experiments in which compounds were tested for their ability to inhibit parasite growth were performed by a modification of the method originally described by Jensen et al. (1982). Fifty μl of parasitized erythrocytes (parasitemia approximately 1%) in a concentration of 5×10^8/ml and 50 μl of RPMI medium containing different concentrations of the test compound was added to each well of a 96 well flat-bottomed microtiter plate (Nunc). The cultures were then incubated for 48 hours, 24 hours before termination of the culture adding 20 μl of 3-H-hypoxanthine (40 uCi/ml) (New England Nuclear, Boston, Mass., USA) was added to each well. The cultures were then harvested onto glass fiber filters using a Skatron cell harvester (Skatron, Lierbyen, Norway), and the incorporation of 3-H-hypoxanthine into the DNA of dividing parasites was determined by liquid scintillation spectrometry.

Going from `C=CCOc1ccc(C(=O)/C=C/c2cccc(OC)c2OC)cc1` [drawing 81] to `COc1ccc(/C=C/C(=O)c2ccc(O)cc2)c(OC)c1` [drawing 70], the inhibition at 0.5 µg/mL rises from 0% to 2.2%.

`COc1ccc(/C=C/C(=O)c2ccccc2O)c(OC)c1` showed an inhibition at 0.5 µg/mL of 0%.

Same assay, conditions: Plasmodium falciparum; 1 μg/ml; read-out: inhibition of malaria parasites (middle figure) (converted)

First: C=CCOc1ccc(C(=O)/C=C/c2cccc(OC)c2OC)cc1 [drawing 81]
Second: COc1ccc(/C=C/C(=O)c2ccc(O)cc2)c(OC)c1 [drawing 70]
The inhibition at 1 µg/mL of the first is higher: 17.2% for the first, 14.8% for the second.

Compound `COc1ccc(/C=C/C(=O)c2ccccc2O)c(OC)c1` has an inhibition at 1 µg/mL of 0.8%.

Same assay, conditions: Plasmodium falciparum; 5 μg/ml; read-out: inhibition of malaria parasites (middle figure) (converted)

Compared with `C=CCOc1ccc(C(=O)/C=C/c2cccc(OC)c2OC)cc1` [drawing 81], `COc1ccc(/C=C/C(=O)c2ccc(O)cc2)c(OC)c1` [drawing 70] is lower in inhibition at 5 µg/mL: 68.2% for the first, 31.6% for the second.

Compound `COc1ccc(/C=C/C(=O)c2ccccc2O)c(OC)c1` has an inhibition at 5 µg/mL of 23.4%.

Same assay, conditions: Plasmodium falciparum; 10 μg/ml; read-out: inhibition of malaria parasites (middle figure) (converted)

Going from `C=CCOc1ccc(C(=O)/C=C/c2cccc(OC)c2OC)cc1` [drawing 81] to `COc1ccc(/C=C/C(=O)c2ccc(O)cc2)c(OC)c1` [drawing 70], the inhibition at 10 µg/mL falls from 73.1% to 64.2%.

`COc1ccc(/C=C/C(=O)c2ccccc2O)c(OC)c1` was tested, and the inhibition at 10 µg/mL was 67.9%.
